# Read-outs that look alike come from different tables or passages of the source.
# What was measured:
# [1] = test system: HeLa-MaTu-ADR cells; assay: Proliferation assay (HeLa-MaTu-ADR cell line); format: cell-based; settings: read-out: Biological Assay 2: Proliferation assay (HeLa-MaTu-ADR cell line) median IC50
# Description: (§1) Cultivated tumor cells (cells were ordered from ATCC, except HeLa-MaTu and HeLa-MaTu-ADR, which were ordered from EPO-GmbH, Berlin) were plated at a density of 1000 to 5000 cells/well, depending on the growth rate of the respective cell line, in a 96-well multititer plate in 200 μL of their respective growth medium supplemented 10% fetal calf serum. After 24 hours, the cells of one plate (zero-point plate) were stained with crystal violet (see below), while the medium of the other plates was replaced by fresh culture medium (200 μl), to which the test substances were added in various concentrations (0 μM, as well as in the range of 0.001-10 μM; the final concentration of the solvent dimethyl sulfoxide was 0.5%). The cells were incubated for 4 days in the presence of test substances. Cell proliferation was determined by staining the cells with crystal violet: the cells were fixed by adding 20 μl/measuring point of an 11% glutaric aldehyde solution for 15 minutes at room temperature. After three washing cycles of the fixed cells with water, the plates were dried at room temperature. The cells were stained by adding 100 μl/measuring point of a 0.1% crystal violet solution (pH 3.0). After three washing cycles of the stained cells with water, the plates were dried at room temperature. The dye was dissolved by adding 100 μl/measuring point of a 10% acetic acid solution. […] The change of cell number, in percent, was calculated by normalization of the measured values to the aborbtion values of the zero-point plate (=0%) and the absorbtion of the untreated (0 μm) cells (=100%). The IC50 values were determined by means of a 4 parameter fit using the company's own software.
# [2] = test system: HeLa cells; assay: Proliferation assay (HeLa cell line); format: cell-based; settings: read-out: Biological Assay 2: Proliferation assay (HeLa cell line) median IC50
# [3] = test system: B16F10 cells; assay: Proliferation assay (B16F10 cell line); format: cell-based; settings: read-out: Biological Assay 2: Proliferation assay (B16F10 cell line) median IC50
# Description: as §1
# [4] = test system: Caco2 cells; assay: Proliferation assay (Caco2 cell line); format: cell-based; settings: read-out: Biological Assay 2: Proliferation assay (Caco2 cell line) median IC50
# Description: as §1
# [5] = test system: DU145 cells; assay: Proliferation assay (DU145 cell line); format: cell-based; settings: read-out: Biological Assay 2: Proliferation assay (DU145 cell line) median IC50
# Description: as §1
# [6] = test system: NCI-H460 cells; assay: Proliferation assay (H460 cell line); format: cell-based; settings: read-out: Biological Assay 2: Proliferation assay (H460 cell line) median IC50
# Description: as §1
# [7] = target: catalytic domain of human Bub1 (amino acids 704-1085) (Homo sapiens (Human), UniProt O43683); assay: Bub1 kinase assay (TR-FRET); format: biochemical; settings: 10 μM ATP, 1 μM peptide substrate; read-out: Biological Assay 1: Bub1 kinase assay median IC50
# Sequence of catalytic domain of human Bub1 (amino acids 704-1085) (O43683 704-1085): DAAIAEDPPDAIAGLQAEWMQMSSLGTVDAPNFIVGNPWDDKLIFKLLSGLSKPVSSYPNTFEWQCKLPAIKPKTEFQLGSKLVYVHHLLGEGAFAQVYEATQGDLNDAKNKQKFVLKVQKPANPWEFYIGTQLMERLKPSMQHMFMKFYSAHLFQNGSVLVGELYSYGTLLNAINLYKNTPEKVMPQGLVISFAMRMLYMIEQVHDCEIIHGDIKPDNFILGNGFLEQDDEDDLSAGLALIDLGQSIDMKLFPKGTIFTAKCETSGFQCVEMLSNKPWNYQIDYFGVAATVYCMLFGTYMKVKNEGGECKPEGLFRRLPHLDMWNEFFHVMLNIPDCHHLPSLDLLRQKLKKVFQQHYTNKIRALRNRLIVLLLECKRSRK
# Summary of the method: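 Phosphoserine product detected by TR-FRET (Eu-labeled anti-mouse IgG/anti-phosphoserine antibody to streptavidin-XL665) after 1 h at 22 °C. IC50 from 4-parameter logistic fit.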
# [8] = 96 h, HeLa-MaTu-ADR, 4 days, crystal violet
# [9] = Homo sapiens, 96 h, 4 days, crystal violet
# [10] = Mus musculus, B16-F10, 96 h, B16F10, 4 days, crystal violet
# [11] = Homo sapiens, Caco-2, 96 h, Caco2, 4 days, crystal violet
# [12] = Homo sapiens, DU-145, 96 h, DU145, 4 days, crystal violet
# [13] = Homo sapiens, NCI-H460, 96 h, H460, 4 days, crystal violet
smiles,measurement,setting,value
"COc1cnc(-c2nn(Cc3ccc4c(C)cc(=O)oc4c3)c3ccccc23)nc1Nc1ccncc1 [Example 2-32-1, 7-({3-[5-methoxy-4-(pyridin-4-ylamino)pyrimidin-2-yl]-1H-indazol-1-yl}methyl)-4-methyl-2H-chromen-2-one]",IC50,[1]; [8],2300 nM
same,IC50,[2]; [9],4200 nM
same,IC50,[3]; [10],1300 nM
same,IC50,[4]; [11],2400 nM
same,IC50,[5]; [12],5300 nM
same,IC50,[6]; [13],8500 nM
same,IC50,[7],29 nM
"COc1cnc(-c2nn(Cc3c(F)c(F)c(OC)c(F)c3F)c3ccccc23)nc1Nc1ccncc1 [Example 2-24-1, 5-methoxy-N-(pyridin-4-yl)-2-[1-(2,3,5,6-tetrafluoro-4-methoxybenzyl)-1H-indazol-3-yl]pyrimidin-4-amine]",IC50,[1]; 96 h,1300 nM
same,IC50,"[2]; Homo sapiens, 96 h",3100 nM
same,IC50,"[3]; Mus musculus, B16-F10, 96 h",1400 nM
same,IC50,"[4]; Homo sapiens, Caco-2, 96 h",1500 nM
same,IC50,"[5]; Homo sapiens, DU-145, 96 h",1300 nM
same,IC50,"[6]; Homo sapiens, NCI-H460, 96 h",2000 nM
same,IC50,[7],14 nM
CCOc1cc(F)c(Cn2nc(-c3ncc(OCC4CNCCO4)c(Nc4ccncc4)n3)c3ccccc32)c(F)c1 (stereo not shown) [Example 38-2],IC50,"[1]; HeLa-MaTu-ADR, 4 days, crystal violet",1100 nM
same,IC50,"[2]; 4 days, crystal violet",1200 nM
same,IC50,"[3]; B16F10, 4 days, crystal violet",600 nM
same,IC50,"[4]; Caco2, 4 days, crystal violet",600 nM
same,IC50,"[5]; DU145, 4 days, crystal violet",1300 nM
same,IC50,"[6]; H460, 4 days, crystal violet",1100 nM
same,IC50,[7],3.4 nM
"CCOc1cc(F)c(Cn2nc(-c3ncc(OCCN(C)C)c(Nc4ccncc4)n3)c3ccccc32)c(F)c1 [Example 4-8, 5-[2-(dimethyl-amino)ethoxy]-2-[1-(4-ethoxy-2,6-difluorobenzyl)-1H-indazol-3-yl]-N-(pyridin-4~ yl)pyrimidin-4-amine]",IC50,[1]; 96 h,360 nM
same,IC50,"[2]; Homo sapiens, 96 h",1300 nM
same,IC50,"[3]; Mus musculus, B16-F10, 96 h",570 nM
same,IC50,"[4]; Homo sapiens, Caco-2, 96 h",760 nM
same,IC50,"[5]; Homo sapiens, DU-145, 96 h",1200 nM
same,IC50,"[6]; Homo sapiens, NCI-H460, 96 h",1100 nM
same,IC50,[7],8 nM
"COc1cnc(-c2nn(Cc3c(Cl)cc(OC(F)(F)F)cc3Cl)c3ccccc23)nc1Nc1ccncc1 [Example 2-26-1, 2-{1-[2,6-dichloro-4-(trifluoromethoxy)benzyl]-1H-indazol-3-yl}-5-methoxy-N-(pyridin-4-yl)pyrimidin-4-amine]",IC50,[1]; 96 h,390 nM
same,IC50,"[2]; Homo sapiens, 96 h",560 nM
same,IC50,"[3]; Mus musculus, B16-F10, 96 h",420 nM
same,IC50,"[4]; Homo sapiens, Caco-2, 96 h",380 nM
same,IC50,"[5]; Homo sapiens, DU-145, 96 h",530 nM
same,IC50,"[6]; Homo sapiens, NCI-H460, 96 h",1000 nM
same,IC50,[7],16 nM
CCOc1cc(F)c(Cn2nc(-c3ncc(OC(F)F)c(N(c4ccncc4)C(F)F)n3)c3ccccc32)c(F)c1 [Example 10-2],IC50,[1]; [8],590 nM
same,IC50,[2]; [9],1700 nM
same,IC50,[3]; [10],900 nM
same,IC50,[4]; [11],1100 nM
same,IC50,[5]; [12],1400 nM
same,IC50,[6]; [13],1500 nM
same,IC50,[7],420 nM
"CCCc1ccc(Cn2nc(-c3ncc(OC)c(Nc4ccncc4)n3)c3ccccc32)cc1 [Example 2-25-1, 5-methoxy-2-[1-(4-propylbenzyl)-1H-indazol-3-yl]-N-(pyridin-4-yl)pyrimidin-4-amine]",IC50,[1]; [8],10000 nM
same,IC50,[2]; [9],9800 nM
same,IC50,[3]; [10],10000 nM
same,IC50,[4]; [11],10000 nM
same,IC50,[5]; [12],10000 nM
same,IC50,[6]; [13],10000 nM
same,IC50,[7],15 nM
"COc1cnc(-c2nn(Cc3c(Cl)cc(OC(F)(F)F)cc3Cl)c3ccccc23)nc1N(Cc1c(Cl)cc(OC(F)(F)F)cc1Cl)c1ccncc1 [Example 2-26-2, N-[2,6-dichloro-4-(trifluoromethoxy)benzyl]-2-{1-[2,6-dichloro-4-(trifluoromethoxy)benzyl]-1H-indazol-3-yl}-5-methoxy-N-(pyridin-4-yl)pyrimidin-4-amine]",IC50,[2]; [9],2900 nM
same,IC50,[7],840 nM
"CCOc1cc(F)c(Cn2nc(-c3ncc(OC)c(Nc4ccncc4CO)n3)c3ccccc32)c(F)c1 [Example 8-4, [4-({2-[1-(4-ethoxy-2,6-difluorobenzyl)-1H-indazol-3-yl]-5-methoxypyrimidin-4-yl}amino)pyrimidin-3-yl]methanol]",IC50,"[2]; 4 days, crystal violet",5000 nM
same,IC50,[7],13 nM
"CCOC(=O)c1cnccc1Nc1nc(-c2nn(Cc3ccccc3F)c3ccccc23)ncc1OCCO [Example 13-3, ethyl 4-({2-[1-(2-fluorobenzyl)-1H-indazol-3-yl]-5-(2-hydroxyethoxy)pyrimidin-4-yl}amino)pyridine-3-carboxylate]",IC50,"[2]; Homo sapiens, 96 h",≥ 10000 nM
same,IC50,[7],17 nM
"CCOc1cc(F)c(Cn2nc(-c3nccc(N(CCO)c4ccncc4)n3)c3ccccc32)c(F)c1 [Example 17-1, 2-[{2-[1-(4-ethoxy-2,6-difluorobenzyl)-1H-indazol-3-yl]pyrimidin-4-yl}(pyridin-4-yl)amino]ethanol]",IC50,[2]; [9],≥ 10000 nM
same,IC50,[7],170 nM
"COc1cnc(-c2nn(Cc3ccccc3F)c3ccccc23)nc1N(C)c1ccncc1 [Example 23-1, 2-[1-(2-fluorobenzyl)-1H-indazol-3-yl]-5-methoxy-N-methyl-N-(pyridin-4-yl)pyrimidin-4-amine]",IC50,[2]; [9],≥ 10000 nM
same,IC50,[7],1400 nM
"COc1cnc(-c2nn(Cc3cccc(CCO)c3)c3ccccc23)nc1Nc1ccncc1 [Example 8-2, 2-[3-({3-[5-methoxy-4-(pyridin-4-ylamino)pyrimidin-2-yl]-1H-indazol-1-yl}methyl)phenyl] ethanol]",IC50,[2]; [9],5500 nM
same,IC50,[7],21 nM
"COc1cnc(-c2nn(Cc3ccccc3F)c3ccccc23)nc1Nc1ccncc1C#N [Example 24-1, 4-({2-[1-(2-fluorobenzyl)-1H-indazol-3-yl]-5-methoxypyrimidin-4-yl}amino)pyridine-3-carbonitrile]",IC50,[2]; [9],≥ 10000 nM
same,IC50,[7],62 nM
OC[C@H](O)COc1cnc(-c2nn(Cc3ccccc3F)c3ccccc23)nc1Nc1ccncc1 [Example 12-3],IC50,"[2]; 4 days, crystal violet",≥ 10000 nM
same,IC50,[7],4.8 nM
"COc1cnc(-c2nn(Cc3c(Cl)cccc3Cl)c3ccccc23)nc1Nc1ccncc1 [Example 2-9-1, 2-[1-(2,6-dichlorobenzyl)-1H-indazol-3-yl]-5-methoxy-N-(pyridin-4-yl)pyrimidin-4-amine]",IC50,[1]; 96 h,8100 nM
same,IC50,"[3]; Mus musculus, B16-F10, 96 h",9500 nM
same,IC50,"[4]; Homo sapiens, Caco-2, 96 h",10000 nM
same,IC50,"[5]; Homo sapiens, DU-145, 96 h",10000 nM
same,IC50,"[6]; Homo sapiens, NCI-H460, 96 h",10000 nM
same,IC50,[7],6.7 nM
"CCCOc1cc(F)c(Cn2nc(-c3ncc(OC)c(Nc4ccncc4)n3)c3ccccc32)c(F)c1 [Example 2-52-1, 2-[1-(2,6-difluoro-4-propoxybenzyl)-1H-indazol-3-yl]-5-methoxy-N-(pyridin-4-yl)pyrimidin-4-amine]",IC50,"[2]; Homo sapiens, 96 h",2100 nM
same,IC50,[7],11 nM
"COc1ccc(Cn2nc(-c3ncc(OC)c(Nc4ccncc4)n3)c3ccccc32)c(Cl)c1 [Example 2-6-1, 2-[1-(2-chloro-4-methoxybenzyl)-1H-indazol-3-yl]-5-methoxy-N-(pyridin-4-yl)pyrimidin-4-amine]",IC50,[2]; [9],3800 nM
same,IC50,[7],4.7 nM
"CNC(=O)c1cnccc1Nc1nc(-c2nn(Cc3ccccc3F)c3ccccc23)ncc1OCCO [Example 13-4, 4-({2-[1-(2-fluorobenzyl)-1H-indazol-3-yl]-5-(2-hydroxyethoxy)-pyrimidin-4-yl}amino)-N-methylpyridine-3-carboxamide]",IC50,[2]; [9],8000 nM
same,IC50,[7],4.7 nM
"CNC(=O)c1ccc(Cn2nc(-c3ncc(OC)c(Nc4ccncc4)n3)c3ccccc32)c(Cl)c1 [Example 29-1, formic acid-3-chloro-4-({3-[5-methoxy-4-(pyridin-4-ylamino)pyrimidin-2-yl]-1H-indazol-1-yl}methyl)-N-methylbenzamide (1:1)]",IC50,[2]; [9],≥ 10000 nM
same,IC50,[7],11 nM

# From patent US10266548B2, “Substituted benzylindazoles for use as Bub1 kinase inhibitors in the treatment of hyperproliferative diseases” (Bayer Intellectual Property GmbH, priority 2011, dated 2019)
